The subject of one data set is BV2 cells. As to the kind of experiment: BV2 cell viability, WST-1 assay. The format is cell-based. As to conditions: doses of 1, 10, 30 and 50 µM. The text has this:
Promising antineurodegenrative candidate molecules should not impair viability of CNS cells. Microglia are critical cells within CNS involved in microglia–neuron communications and are responsible for maintenance of brain integrity and health[61]^,[62]. However, under neuroinflammatory conditions, aberrant activation of microglia contributes to neurodegeneration and disease progression. In this regard, suppression of the abnormal activation while maintenance of viability of microglia is important considerations. […] The viability assay was carried out using the water-soluble tetrazolium reagent WST-1 which eliminates the formazan dissolution step requested in case of MTT[65] employing multiple doses of 1, 10, 30, and 50 µM. […] In lieu of this, it might be inferred that these compounds showing effective inhibition of MAO-B activity and triggering no impairment of microglia viability are good candidates might be advanced for further evaluation towards the development of multifunctional molecules for neurodegenerative diseases such as PD.
The impact of the compounds on the viability of cells was performed by the well-known WST-1 assay method as described in the Supporting information.
Background: Tetrazolium dyes change colour on reduction, which living cells bring about.

The target of the next data set is T1, recombinant human MAO-A (Homo sapiens, UniProt P21397).
T1 sequence (P21397 1-527): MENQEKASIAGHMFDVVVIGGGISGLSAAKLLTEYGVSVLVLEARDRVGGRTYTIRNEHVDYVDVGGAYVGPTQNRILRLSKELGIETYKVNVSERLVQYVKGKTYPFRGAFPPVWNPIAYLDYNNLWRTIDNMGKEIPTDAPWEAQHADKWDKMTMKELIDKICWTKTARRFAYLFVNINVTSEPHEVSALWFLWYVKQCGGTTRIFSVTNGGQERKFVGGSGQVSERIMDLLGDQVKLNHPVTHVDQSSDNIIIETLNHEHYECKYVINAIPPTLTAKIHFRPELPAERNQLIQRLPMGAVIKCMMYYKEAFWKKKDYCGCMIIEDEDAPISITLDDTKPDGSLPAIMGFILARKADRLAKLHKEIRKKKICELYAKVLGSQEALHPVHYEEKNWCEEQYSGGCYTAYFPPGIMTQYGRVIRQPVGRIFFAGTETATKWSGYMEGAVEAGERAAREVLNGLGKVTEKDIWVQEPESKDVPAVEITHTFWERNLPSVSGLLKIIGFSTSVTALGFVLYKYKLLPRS
As to the kind of experiment: hMAO-A inhibition, spectrophotometric assay. The format is biochemical. As to conditions: for inhibition at 10 µM: single dose concentration of 10 µM. The text has this: Two different MAO isoforms are known.

Data set [1] deals with T2, MAO-B (Homo sapiens, UniProt P27338).
T2 sequence (P27338 1-520): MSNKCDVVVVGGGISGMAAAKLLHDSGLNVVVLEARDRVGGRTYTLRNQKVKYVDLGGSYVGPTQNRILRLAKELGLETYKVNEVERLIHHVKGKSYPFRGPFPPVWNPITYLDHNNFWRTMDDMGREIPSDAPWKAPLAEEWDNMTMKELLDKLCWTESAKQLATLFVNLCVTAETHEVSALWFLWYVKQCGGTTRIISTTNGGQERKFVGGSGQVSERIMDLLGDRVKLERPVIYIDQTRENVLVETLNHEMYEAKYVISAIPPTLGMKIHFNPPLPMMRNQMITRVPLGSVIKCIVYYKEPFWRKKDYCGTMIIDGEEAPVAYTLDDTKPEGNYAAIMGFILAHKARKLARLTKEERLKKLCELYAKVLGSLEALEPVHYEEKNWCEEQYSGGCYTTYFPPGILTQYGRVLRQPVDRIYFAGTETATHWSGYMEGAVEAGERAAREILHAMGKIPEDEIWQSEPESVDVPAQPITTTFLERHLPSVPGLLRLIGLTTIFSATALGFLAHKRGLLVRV
Kind of data set: hMAO-B inhibition, spectrophotometric assay. As to conditions: for Selectivity index for inhibition of MAO-B: IC50 MAO-A divided by IC50 MAO-B; for inhibition at 10 µM: read-out: MAO-B % Inhibition, single dose concentration of 10 µM.
Method: The inhibitory activities of the compounds against hMAO-A and hMAO-B enzymes were evaluated referring to a previously described method (Supporting information)[49].

Data set [2] deals with T2, MAO-B. Kind of data set: MAO-B inhibition kinetic study (Michaelis–Menten, Lineweaver–Burk). The format is biochemical. As to conditions: for Type of MAO-B inhibition: Lineweaver–Burk plots; for Ki: benzylamine as substrate. As to the method: (§1) To get insights into MAO-B inhibition reaction by compounds 1p and 1y, a kinetic study and reversibility testing were conducted. As illustrated in Figure 4(A,B), Michaelis–Menten graphs were constructed using different concentrations of compounds 1p and 1y employing different concentrations benzylamine as a substrate.
(§2) Kinetics of the inhibition of MAO-B and testing of reversibility were conducted according to literature-reported protocols[59] as indicated in the Supporting information.

The test system of data set [3] is LPS-treated BV2 cells (NO production). Kind of data set: LPS-induced production of nitric oxide in BV2 cells. As to conditions: different concentrations, Figure 3(A). The format is cell-based. As to the method: (§3) Neuroinflammation is a crucial component in neurodegenerative diseases. Chronic activation of microglia, which are the brain-resident form of macrophages, results in sustained production of several proinflammatory mediators including glial NO, PGE2, and others molecules that are implicated in multiple neurodegenerative diseases. […] In this regard, LPS-treated BV2 cells were incubated with or without different concentrations of each compound. […] Based on collective results of antineuroinflammatory activity evaluation, in conjugation with above-conducted MAO inhibitions’ assays, compound 1p might be claimed as a promising lead compound eliciting polypharmacological effects combining inhibition of neuroinflammation and MAO-B activity; both processes are crucial components of neurodegenerative diseases such as PD.
(§4) The abilities of compounds to inhibit the induced production of NO and PGE2 were assessed by well-known protocol as indicated in the Supporting information.

Data set [4] has as its target T2, MAO-B. Kind of data set: MAO-B inhibition reversibility testing (washing). The format is biochemical. The conditions noted are these: enzymatic activity after washing. As to the method:
as §1, §2

For data set [5], the system named is LPS-treated BV2 cells (PGE2 production). As to the kind of experiment: LPS-induced production of PGE2 in BV2 cells. The class given is cell-based. As to conditions: different concentrations, Figure 3(B). As to the method:
as §3, §4

Structures are written as SMILES. Entries after “also recorded” stand apart in the source; their conditions may differ.

As usually defined, the IC50 is the concentration needed to halve the response being measured. For orientation: Ki means a measure of affinity in units of concentration, obtained from inhibition or displacement.

In the case of `COCOc1ccc(/C=C2\Oc3cc(O)ccc3C2=O)cc1` [Compound 1q], the “Impact on viability of BV2 cells” value with BV2 cells was “none of the tested concentrations”. For the same molecule, on recombinant human MAO-A, the IC50 was above 100 µM and the inhibition at 10 µM stood at 24.5%. At MAO-B [1], the half-maximal inhibitory concentration (IC50) amounted to 0.593 µM, the “Selectivity index for inhibition of MAO-B” value was above 168 and the inhibition at 10 µM amounted to 89%.
Consider `COc1ccc(/C=C2\Oc3cc(O)ccc3C2=O)c(OC)c1OC` [Compound 1p], for which, at MAO-B [2], the “Type of MAO-B inhibition” value is “competitive inhibitors; also recorded: Competitive inhibition” and the inhibition constant (Ki) came to 0.0365 µM. The “Effect on LPS-induced NO production by BV2 cells” value in data set [3] is listed as “significant inhibition of NO production”. The “Impact on viability of BV2 cells” value in the data set with BV2 cells is on record as “none of the tested concentrations”. Moreover, on recombinant human MAO-A, the IC50 is above 100 µM and the inhibition at 10 µM was -1.53%. In addition, the “Reversibility of MAO-B inhibition” value on MAO-B [4] is listed as “washing restored the enzymatic activity”. The “Effect on LPS-induced PGE2 production by BV2 cells” value in data set [5] is on record as “effectively suppressed the induced-PGE2 production”. For the same molecule, at MAO-B [1], the IC50 was 0.171 µM, the “Selectivity index for inhibition of MAO-B” value was above 583 and the inhibition at 10 µM came to 96.7%.
Consider `COc1ccc2c(c1)O/C(=C\c1ccccc1OC)C2=O` [Compound 1x], for which, in the data set with BV2 cells, the “Impact on viability of BV2 cells” value is listed as “none of the tested concentrations”. Further, at recombinant human MAO-A, the IC50 is above 100 µM and the inhibition at 10 µM came to 21.6%. Also, at MAO-B [1], the IC50 was determined as 0.593 µM, the “Selectivity index for inhibition of MAO-B” value is reported as above 168 and the inhibition at 10 µM is 89.5%.
For `COc1cccc(/C=C2\Oc3cc(OC)ccc3C2=O)c1` [Compound 1y], on MAO-B [2], the “Type of MAO-B inhibition” value is reported as “competitive inhibitors; also recorded: Competitive inhibition” and affinity was put at a Ki of 0.0291 µM. In the data set with BV2 cells, the “Impact on viability of BV2 cells” value is listed as “none of the tested concentrations”. Further, on recombinant human MAO-A, the IC50 is above 100 µM and the inhibition at 10 µM turned out to be 3.26%. For the same molecule, the “Reversibility of MAO-B inhibition” value at MAO-B [4] is listed as “washing restored the enzymatic activity”. Moreover, at MAO-B [1], half-maximal inhibition (IC50) was put at 0.201 µM, the “Selectivity index for inhibition of MAO-B” value is above 496 and the inhibition at 10 µM was 99.2%.
Consider `C[C@H](NCc1ccc(OCc2cccc(F)c2)cc1)C(N)=O` [Safinamide, safinamide, reference compound], for which the “Effect on LPS-induced NO production by BV2 cells” value in data set [3] was “significant inhibition of NO production”. In addition, the “Impact on viability of BV2 cells” value with BV2 cells is on record as “cytotoxic effects”. Also, in data set [5], the “Effect on LPS-induced PGE2 production by BV2 cells” value is on record as “undesirable dose-dependent increase in PGE2 production”.
Regarding `O=C1/C(=C/c2ccc(O)cc2)Oc2cc(O)ccc21` [Hispidol, hispidol, reference compound], the “Effect on LPS-induced NO production by BV2 cells” value in data set [3] is reported as “significant inhibition of NO production”. In the data set with BV2 cells, the “Impact on viability of BV2 cells” value was “cytotoxic effects”. In addition, at recombinant human MAO-A, the IC50 was determined as 5.28 µM and the inhibition at 10 µM was 69.3%. Also, the “Effect on LPS-induced PGE2 production by BV2 cells” value in data set [5] was “effectively suppressed the induced-PGE2 production”.
With `O=C1/C(=C/c2cc(O)cc(O)c2)Oc2cc(O)ccc21` [Compound 1g, (Z)-2–(3,5-Dihydroxybenzylidene)-6-hydroxybenzofuran-3(2H)-one], on recombinant human MAO-A, the IC50 is above 10 µM and the inhibition at 10 µM was 35.7%. On MAO-B [1], the IC50 is above 10 µM and the inhibition at 10 µM was found to be 12.8%.
`COc1ccc2c(c1)O/C(=C\c1ccc(O)cc1)C2=O` [Compound 1t]: on recombinant human MAO-A, the IC50 was above 100 µM and the inhibition at 10 µM is 8.54%. Further, at MAO-B [1], the concentration for half-maximal inhibition (IC50) turned out to be 1.33 µM, the “Selectivity index for inhibition of MAO-B” value is above 75 and the inhibition at 10 µM turned out to be 89.6%.
As for `COc1cc(/C=C2\Oc3cc(O)ccc3C2=O)cc(OC)c1` [Compound 1o], at recombinant human MAO-A, the IC50 was above 10 µM and the inhibition at 10 µM came out at 0.37%. Moreover, on MAO-B [1], the 50% inhibitory concentration (IC50) was above 10 µM and the inhibition at 10 µM turned out to be 41.2%.
In the case of `COc1ccc2c(c1)O/C(=C\c1cccc(O)c1)C2=O` [Compound 1s], at recombinant human MAO-A, the IC50 is above 10 µM and the inhibition at 10 µM came out at 7.73%. At MAO-B [1], the IC50 is above 10 µM and the inhibition at 10 µM is 48.9%.
With `O=C1/C(=C/c2cc(O)ccc2O)Oc2cc(O)ccc21` [Compound 1f], at recombinant human MAO-A, the concentration for half-maximal inhibition (IC50) was found to be 7.77 µM and the inhibition at 10 µM amounted to 53.3%. On MAO-B [1], it took 3.52 µM to reach half-maximal inhibition (IC50), the “Selectivity index for inhibition of MAO-B” value stood at 2.21 and the inhibition at 10 µM was 61.4%.
Consider `COc1ccc2c(c1)O/C(=C\c1ccccc1O)C2=O` [Compound 1r], for which, on recombinant human MAO-A, the IC50 is above 10 µM and the inhibition at 10 µM was found to be 2.29%. For the same molecule, at MAO-B [1], the IC50 was above 10 µM and the inhibition at 10 µM came to 22.5%.

These data come from PMC8881063 (Journal of Enzyme Inhibition and Medicinal Chemistry, 2022).
